Results as given in patent US10800816B2 (Baxalta GmbH, priority 2012, dated 2020).
Converted amounts (≈) assume the structure as drawn.

Key:
[1] = Pharmacokinetics in C57Bl6 mice; assay type: in vivo, mouse
human TFPI-1 = molecular target: T1, human TFPI-1 (Homo sapiens, UniProt P10646); assay: BIAcore surface plasmon resonance, immobilized human TFPI-1; assay type: binding; conditions: Table 6
T1 construct: human TFPI-1 (residues 29-282 fused at the C-terminus to a 10 His-tag); purchased R&D Systems 2974-PI
T1 sequence (P10646 29-282): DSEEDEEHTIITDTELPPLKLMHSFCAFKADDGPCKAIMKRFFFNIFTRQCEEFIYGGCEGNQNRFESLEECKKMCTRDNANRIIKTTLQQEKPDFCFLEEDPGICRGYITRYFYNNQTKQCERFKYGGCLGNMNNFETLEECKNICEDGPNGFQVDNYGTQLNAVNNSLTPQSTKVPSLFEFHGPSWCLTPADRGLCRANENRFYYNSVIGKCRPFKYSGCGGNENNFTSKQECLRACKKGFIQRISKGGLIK

TFPI = assay: FXa inhibition assay (human TFPI); conditions: read-out: FXa Inhibition Assay EC50; Table 7 and text b402
fl-TFPI / ASGPR = molecular target: T2, fl-TFPI / ASGPR (Homo sapiens, UniProt P10646); assay: BIAcore: fl-TFPI binding to ASGPR in presence of peptide; conditions: 1 μM peptide
T2 sequence (P10646 29-304): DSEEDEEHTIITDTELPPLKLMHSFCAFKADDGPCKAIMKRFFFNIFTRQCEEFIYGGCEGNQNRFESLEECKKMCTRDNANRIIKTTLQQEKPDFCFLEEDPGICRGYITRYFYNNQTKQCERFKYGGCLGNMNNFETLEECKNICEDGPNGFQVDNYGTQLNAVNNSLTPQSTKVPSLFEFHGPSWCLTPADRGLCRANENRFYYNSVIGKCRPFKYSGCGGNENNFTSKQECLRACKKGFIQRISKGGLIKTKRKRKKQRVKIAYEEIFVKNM

[2] = test system: FVIII-inhibited whole blood; assay: Rotation thromboelastography (ROTEM) in whole blood; design: species or system human; conditions: Hem A / FVIII-inhibited human whole blood
Protocol: Continuous visco-elastic assessment of human whole blood clot formation and firmness was performed by rotation thromboelastography with whole blood preparations in the presence or absence of peptides. […] Test samples were prepared by dissolving quantities of peptides in either DMSO or HEPES buffered saline (with or without 0.1% Tween 80).
Recordings were made using a ROTEM thromboelastography coagulation analyzer (Pentapharm, Munich, Germany) at 37° C. Briefly, blood is added into a disposable cuvette in a heated cuvette holder. A disposable pin (sensor) is fixed on the tip of a rotating axis. The axis is guided by a high precision ball bearing system and rotates back and forth. The axis is connected with a spring for the measurement of elasticity. The exact position of the axis is detected by the reflection of light on a small mirror on the axis. The loss of elasticity when the sample clots leads to a change in the rotation of the axis. The data obtained are computer analyzed and visualized in a thromboelastogram. […] An elasticity of approximately zero is observed before clot formation begins. Mirror image traces above and below the zero line indicate the effect of clot formation on the rotation of the axis.
The analytical set-up was as follows: to 20 μL of test sample or control, 300 μL of pre-warmed (37° C.) CTI treated citrated whole blood was added, followed by 20 μL of a 1:15 dilution of TF PRP reagent containing recombinant human tissue factor (rTF, 3 pM) (TS40, Thrombinoscope BV, Maastricht, The Netherlands). Coagulation was initiated by the addition of 20 μ200 mM CaCl2 (star-TEM®, Pentapharm, Munich, Germany) and recordings were allowed to proceed for at least 120 min. The final concentration of rTF in the assay was 11 or 44 fM.
The thromboelastographic parameters of clotting time (CT), clot formation time (CFT) and maximum clot firmness (MCF) were recorded in accordance with the manufacturer's instructions. CT is defined as the time from the start of measurement to the start of clot formation. CFT is defined as the time from the start of clot formation until an amplitude of 20 mm is reached. MCF is the maximum difference in amplitude between the two traces during the assay. The first derivative of the data of the thromboelastogram are plotted to obtain a graph of velocity (mm/s) against time (s). From this graph, the maximum velocity (maxV) is determined. The time at which the maximum velocity is obtained (maxV-t) is also determined.
This example describes a method for assessing clot formation in whole blood using rotation thromboelastography (ROTEM). The assay was performed as described in Example 8. The analytical set-up was as follows: 300 μL of pre-warmed (37° C.) CTI treated citrated whole blood was added to a peptide sample (10, 100, 1000 nM final assay concentration) or a control, followed by addition of a 1:15 dilution of TF PRP reagent containing recombinant human tissue factor (rTF, 3 pM) (TS40, Thrombinoscope BV, Maastricht, The Netherlands). In certain experiments, exogenous full length TFPI (flTFPI) at final concentrations of 2 or 10 nM was added to simulate flTFPI plasma levels of up to 50-fold over normal. Coagulation was initiated by the addition of 20 μL 200 mM CaCl2 (star-TEM®, Pentapharm, Munich, Germany) and recordings were allowed to proceed for at least 120 min. The final concentration of rTF in the assay was 44 fM. The thromboelastographic parameters of clotting time (CT), clot formation time (CFT) and maximum clot firmness (MCF) were recorded in accordance with the manufacturer's instructions. CT is defined as the time from the start of measurement to the start of clot formation. CFT is defined as the time from the start of clot formation until an amplitude of 20 mm is reached. MCF is the maximum difference in amplitude between the two traces during the assay.

FIX knock-out mice = assay: Tail-tip bleed model in FIX knock-out mice; assay type: in vivo, mouse; conditions: 1 mg/kg JBT2329 alone
Protocol: JBT2329 also was tested in a FIX knock-out tail-tip bleed mouse model, which is a clinically-relevant model for hemophilia B human patients. The methodology was substantially similar to that described above with respect to the FVIII knock-out model. Instead of ADVATE, a recombinant FIX (rFIX) served as a reference. Median total blood loss in buffer-treated animals was 935 mg. Median total blood loss in animals treated with a murine anti-TFPI antibody (maTFPI) was 774 mg. Median total blood loss was reduced further when the animals received combined treatment of maTFPI and rFIX.

[3] = 24 h
C57Bl/6NCrl mice = assay: Nail clip bleeding study in mice; assay type: in vivo, mouse
FVIII knock-out mice = conditions: 1 mg/kg without ADVATE
FVIII-deficient mice = assay: Puncture-induced hemarthrosis in FVIII-deficient mice; assay type: in vivo, mouse; conditions: 1 mg/kg i.v.
Protocol: After each product administration, the right knee joint capsule was punctured with a 30 gauge needle to induce hemorrhage. Animals were sacrificed three days following injury, and bleeding was assessed via gross and histological methods. […] Summary bleeding scores (SBS), which include visual and histological bleeding scores, were assigned to each joint. […] The results described herein further confirm that peptides of the invention provide a prophylactic or protective effect against bleeding in an in vivo model of hemophilia A.

[4] = mouse, 24 h
fl-TFPI / LRP = molecular target: T3, fl-TFPI / LRP (Homo sapiens, UniProt P10646); assay: BIAcore: fl-TFPI binding to LRP in presence of peptide; conditions: 1 μM peptide, 10 nM fl-TFPI
T3 sequence (P10646 29-304): T2 sequence (P10646 29-304)
T3 sequence (Q07954 852-1182 partner limits assumed): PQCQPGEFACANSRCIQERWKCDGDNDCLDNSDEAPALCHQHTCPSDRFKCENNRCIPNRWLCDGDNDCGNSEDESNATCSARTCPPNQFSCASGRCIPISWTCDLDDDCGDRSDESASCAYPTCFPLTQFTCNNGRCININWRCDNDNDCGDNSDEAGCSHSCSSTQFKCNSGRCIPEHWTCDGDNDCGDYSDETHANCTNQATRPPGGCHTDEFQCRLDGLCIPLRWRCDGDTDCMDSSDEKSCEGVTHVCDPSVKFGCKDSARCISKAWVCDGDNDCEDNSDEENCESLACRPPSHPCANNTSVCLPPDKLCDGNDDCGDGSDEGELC

[5] = 0.1 mg/kg i.v., first 30 minutes
[6] = 0.1 mg/kg i.v., second 30 minute period

What does the source list for `CC(=O)N[C@@H](Cc1ccccc1)C(=O)N[C@@H](CCC(N)=O)C(=O)N[C@@H](CO)C(=O)N[C@@H](CCCCN)C(=O)NCC(=O)N[C@@H](CC(N)=O)C(=O)N[C@H](C(=O)N[C@@H](Cc1ccccc1)C(=O)N[C@H](C(=O)N[C@@H](CC(=O)O)C(=O)NCC(=O)N[C@@H](Cc1ccc(O)cc1)C(=O)N[C@@H](Cc1ccccc1)C(=O)N[C@@H](CCC(=O)O)C(=O)N[C@@H](CCCNC(=N)N)C(=O)N[C@@H](CC(C)C)C(=O)NC(C)(C)C(=O)N[C@@H](C)C(=O)N[C@@H](CCCCN)C(=O)N[C@@H](CC(C)C)C(N)=O)C(C)C)C(C)C` [JBT0740]?
plasma concentration after intravenous administration ([1]; 10 mg/kg i.v., FIG. 31): rapidly cleared from the plasma; solubility (physchem): 920 µg/mL (≈ 392 µM)

Which Kd (human TFPI-1) does the source give for Ac-FQSKNNVFVFGYFERLRAKL-NH2 [JBT0297] here?
The Kd was 29 nM.

What about the EC50 (TFPI) of the same compound?
The EC50 was 600 nM.

Which “fl-TFPI interaction with ASGPR in presence of peptide” value (fl-TFPI / ASGPR) does the source give for “Ac-FQSKpNVHVDGYFERL-Aib-AKLC(PEG)-NH2 [JBT2329] (FQSKPNVHVDGYFERLXAKLC; acetyl, D-Pro, Aib, Cys-PEG 41.5 kD, amide; MOD_RES (1)..(1): N-terminal acetylation; MOD_RES (5)..(5): D-Pro; MOD_RES (17)..(17): Xaa is 2-amino-isobutyric acid; MOD_RES (21)..(21): Cys-PEG; MOD_RES (21)..(21): C-terminal amidation)” here?
The value was “diminished the ASGPR-fl-TFPI interaction”.

And the coagulation parameters [2]?
The coagulation parameters was “restored prolonged coagulation parameters in Hem A blood”.

And the “HL_λ_z [h] (intravenous)” value ([1]; 1 mg/kg peptide content, intravenous)?
Its value is 19.8 h.

What about the “Bioavailability [%] (s.c.)” value ([1]; 1 mg/kg peptide content, s.c. AUC vs i.v. AUC) of the same compound?
Its value is 73.3%.

And the “effect on median total blood loss” value (FIX knock-out mice)?
The value was “did not lead to a significant reduction in median total blood loss”.

And the “Human Plasma Stability, 24 hour (%)” value [3]?
Its value is 67.3%.

And the “reduction of total blood loss compared to vehicle” value (C57Bl/6NCrl mice; 0.1 mg/kg i.v., 60 minutes)?
Its value is roughly 60%.

What about the mean blood loss (C57Bl/6NCrl mice; 0.1 mg/kg i.v., 60 minutes total) of the same compound?
Its mean blood loss is 34.7 µL.

What about the mean blood loss (C57Bl/6NCrl mice; [5]) of the same compound?
The mean blood loss was 16.0 µL.

What about the “reduction of blood loss compared to vehicle” value (from here on “reduction of blood loss”) (C57Bl/6NCrl mice; [5]) of the same compound?
The value was “about 50%”.

What about the mean blood loss (C57Bl/6NCrl mice; [6]) of the same compound?
Its mean blood loss is 18.7 µL.

And the “reduction of blood loss” value (C57Bl/6NCrl mice; [6])?
The value was “about 64%”.

What about the mean blood loss (C57Bl/6NCrl mice; 1.0 mg/kg i.v., entire 60 minutes) of the same compound?
The mean blood loss was 22.8 µL.

What about the mean blood loss (C57Bl/6NCrl mice; 1.0 mg/kg i.v., first 30 minutes) of the same compound?
The mean blood loss was 12.2 µL.

And the mean blood loss (C57Bl/6NCrl mice; 1.0 mg/kg i.v., second 30 minute period)?
Its mean blood loss is 10.6 µL.

What about the “reduction of blood loss” value (C57Bl/6NCrl mice; 10 mg/kg subcutaneous, 60 minutes) of the same compound?
Its value is “approximately 58%”.

And the “effect on median total blood loss” value (FVIII knock-out mice)?
Its value is “did not reduce median total blood loss over that observed in buffer-treated animals”.

What about the “protective effect on joint bleeding (summary bleeding score)” value (FVIII-deficient mice) of the same compound?
Its value is “significantly greater than the effect of 10 IU/kg ADVATE, but less than 100 IU/kg ADVATE”.

What about the “percentage of initial amount of peptide remaining in plasma” value [4] of the same compound?
Its value is no less than 60%.

And the “fl-TFPI interaction with LRP in presence of peptide” value (fl-TFPI / LRP)?
Its value is “slight decrease in fl-TFPI LRP interaction”.
